Test results as given in the NIST ThermoML archive (doi:10.1021/je0255628).
Several values for one entry are separate records, joined by “and”; a condition that tells them apart may be missing. Equal entries are not always repeated. Numbers after ± are expanded uncertainties.

Conditions: Liquid

vapor or sublimation pressure (313.15 K) | vapor or sublimation pressure (308.15 K) [kPa] | SMILES
53.81 ± 0.24 kPa |  | COC(C)=O [methyl ethanoate]
 | 114.88 ± 0.35 | COC=O [methyl methanoate]
9.586 ± 0.17 kPa |  | CCCOC(C)=O [propyl ethanoate]
25.08 ± 0.2 kPa |  | CCOC(C)=O [ethyl acetate]
10.6 ± 0.17 kPa |  | CCOC(=O)CC [ethyl propanoate]

SMILES | vapor or sublimation pressure (313.15 K) | vapor or sublimation pressure (308.15 K) [kPa]
CCOCCO [2-ethoxyethan-1-ol] | 1.864 ± 0.16 kPa and 1.803 ± 0.16 kPa and 1.829 ± 0.16 kPa | 1.303 ± 0.16
